Counter-ions that a name gives are not always drawn.
What was measured:
CETP [1] = target: T1, CETP (Homo sapiens, UniProt P11597); assay: Inhibitory effect in vitro on CETP activity in total plasma; format: biochemical; settings: plasma of healthy subject with [3H]CE-HDL3, 37° C., 4 hr; average values
T1 construct: The donor lipoprotein obtained above was added to plasma of healthy subject; from tissue; host or cells: whole plasma of healthy subject
T1 sequence (P11597 18-493): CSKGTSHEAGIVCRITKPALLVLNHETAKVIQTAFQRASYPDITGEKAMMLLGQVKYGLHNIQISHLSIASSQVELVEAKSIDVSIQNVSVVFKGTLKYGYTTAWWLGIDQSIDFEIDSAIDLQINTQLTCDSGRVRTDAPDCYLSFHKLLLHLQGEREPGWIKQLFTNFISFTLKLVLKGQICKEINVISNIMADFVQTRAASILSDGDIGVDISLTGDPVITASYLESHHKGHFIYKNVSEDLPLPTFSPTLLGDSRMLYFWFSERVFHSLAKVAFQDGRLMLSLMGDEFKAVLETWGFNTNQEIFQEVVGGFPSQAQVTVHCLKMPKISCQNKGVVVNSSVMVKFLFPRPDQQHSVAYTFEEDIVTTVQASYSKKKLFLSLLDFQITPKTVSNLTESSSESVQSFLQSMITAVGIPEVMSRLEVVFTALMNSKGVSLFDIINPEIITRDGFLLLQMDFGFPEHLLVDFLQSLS
In short: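 Healthy-donor plasma spiked with [3H]cholesteryl ester-labelled HDL3 (1,000 dpm/μL) was incubated with compound (DMF vehicle) for 4 hr at 37 °C or 4 °C. HDL was separated by MgCl2/dextran sulfate precipitation and supernatant radioactivity counted. IC50 is the concentration giving 50% inhibition of CETP activity.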

CETP [2] = assay: Inhibitory effect exo vivo on CETP activity in total plasma of normal hamster; settings: blood taken 2 hr after administration, average values
Method: Potassium bromide (KBr) was added to plasma (40 mL) of healthy subject and the mixture was adjusted to have a specific density d=1.125 g/mL. The mixture was subjected to density gradient centrifugation (227,000×g, 4° C., 17 hr) and a fraction showing a specific density of d>1.125 g/mL (HDL3 fraction) was harvested. The obtained fraction was dialyzed against PBS solution [10 mmol/L Na2HPO4; 10 mmol/L NaH2PO4; 0.15 mol/L NaCl; […] (pH 7.4)]. Then, tritium-labeled cholesterol (37 MBq) was dissolved in 95% ethanol, gradually added to the above-mentioned HDL3 fraction with stirring and incubated at 37° C. for 18 hr. [By this operation, tritium-labeled cholesterol was esterified by the action of lecithin acyl transferase (LCAT) present on the HDL3 surface and taken up into HDL3 as tritium-labeled cholesteryl ester ([^3H]CE)]. After incubation, KBr was added, the mixture was adjusted to have a specific density d=1.21 g/mL, subjected to density gradient centrifugation (227,000×g, 4° C., 17 hr) and a fraction of specific density […] was harvested. The obtained fraction was dialyzed against the aforementioned PBS solution to give HDL3 incorporating [^3H]CE ([^3H]CE-HDL3, specific density: 1.125<d<1.21, specific activity: 10,000 dpm/μL), which was used as a donor lipoprotein.
The compound of the present invention was suspended in 0.5% methyl cellulose solution and orally administered once to a healthy hamster with a plastic gavage needle. Blood was taken at 2 or 4 hr after the administration and CETP activity in plasma was measured according to the following method.
The donor lipoprotein obtained above was added to hamster plasma (100 μL) to prepare [^3H]CE-HDL3-containing plasma (ca. 1,000 dpm/μL). The [^3H]CE-HDL3-containing plasma was dispensed to two microtubes by 25 μL each, and one was incubated at 37° C. and the other was incubated at 4° C. for 4 hr each. After ice-cooling, TBS solution (50 μl) containing 1 mol/L magnesium chloride and 2% dextran sulfate was added to each microtube and the mixture was thoroughly stirred. After keeping at […] for 30 min, the mixture was centrifuged (10,000×g, 4° C., 20 min), and the radioactivity in the obtained supernatant (HDL fraction) was measured with a liquid scintillation counter. The radioactivity of the [^3H]CE-HDL3-containing plasma was measured with a liquid scintillation counter, and taken as the total radioactivity. The transfer rate of [^3H]CE was calculated from the following formula using the total radioactivity (Total count), radioactivity by 37° C. incubation (37° C. count) and radioactivity by 4° C. incubation (4° C. count) of the sample of each individual and taken as the CETP activity. CETP activity(transfer ratio (%))={[(4° C. count)−(37° C. count)]/(Total count)}×100
The CETP activity inhibitory ratio of each compound administration group based on the CETP activity of the solvent administration group as 100% was calculated from the following formula and expressed in %.
CETP activity inhibitory ratio (%)=100−[(CETP activity of each compound administration group)/(CETP activity of solvent administration group)×100]

Row | IC50 (CETP [1]) | Structure (SMILES) | CETP activity (%) 2 (hr later) (CETP [2]; single oral dose 30 mg/kg) | CETP activity (%) 2 (hr later) (CETP [2]; single oral dose 10 mg/kg)
1 | 390 nM | CCN(CCCCC(=O)O)c1cc2c(cc1CN(Cc1cc(C(F)(F)F)cc(C(F)(F)F)c1)c1cc(C)no1)CCC2.Cl [Example 40, 5-[N-(6-{[N′-[3,5-bis(trifluoromethyl)benzyl]-N′-(3-methylisoxazol-5-yl)amino]methyl}indan-5-yl)-N-ethylamino]pentanoic acid hydrochloride] | 59.5% | 
2 |  | CCN(CCCCC(=O)OC)c1cc2c(cc1CN(Cc1cc(C#N)cc(C(F)(F)F)c1)c1nnn(C)n1)CCC2.Cl [Example 36] | 33.3% | 
3 | 690 nM | CCN(CCCCC(=O)O)c1ccc(OC(F)(F)F)cc1CN(Cc1cc(C(F)(F)F)cc(C(F)(F)F)c1)c1nnn(C)n1.Cl [Example 89, 5-[N-(2-{[N′-[3,5-bis(trifluoromethyl)benzyl]-N′-(2-methyl-2H-tetrazol-5-yl)amino]methyl}-4-trifluoromethoxyphenyl)-N-ethylamino]pentanoic acid hydrochloride] |  | 77.7%
4 | 560 nM | CCN(CCC(C)(C)CC(=O)O)c1ccc(OC(F)(F)F)cc1CN(Cc1cc(C(F)(F)F)cc(C(F)(F)F)c1)c1ccn(C)n1.Cl [Example 107, 5-[N-(2-{[N′-[3,5-bis(trifluoromethyl)benzyl]-N′-(1-methyl-1H-pyrazol-3-yl)amino]methyl}-4-trifluoromethoxyphenyl)-N-ethylamino]-3,3-dimethylpentanoic acid hydrochloride] |  | 41.9%
5 | 470 nM | CCN(CCCCC(=O)O)c1cc2c(cc1CN(Cc1cc(C(F)(F)F)cc(C(F)(F)F)c1)c1nnn(C)n1)CCC2.Cl [Example 38, 5-[N-(6-{[N′-[3,5-bis(trifluoromethyl)benzyl]-N′-(2-methyl-2H-tetrazol-5-yl)amino]methyl}indan-5-yl)-N-ethylamino]pentanoic acid hydrochloride] | 79.4% | 
6 | 300 nM | CCN(C[C@H]1CC[C@H](C(=O)O)CC1)c1ccc(OC(F)(F)F)cc1CN(Cc1cc(C(F)(F)F)cc(C(F)(F)F)c1)c1nnn(C)n1.Cl [Example 98, trans-4-[{N-(2-{[N′-[3,5-bis(trifluoromethyl)benzyl]-N′-(2-methyl-2H-tetrazol-5-yl)amino]methyl}-4-trifluoromethoxyphenyl)-N-ethylamino]methyl}cyclohexanecarboxylic acid hydrochloride] |  | 43.3%
7 | 250 nM | CCN(CCC(C)(C)CC(=O)O)c1ccc(OC(F)(F)F)cc1CN(Cc1cc(C(F)(F)F)cc(C(F)(F)F)c1)c1noc(C)n1.Cl [Example 108, 5-[N-(2-{[N′-[3,5-bis(trifluoromethyl)benzyl]-N′-(5-methyl-[1,2,4]oxadiazol-3-yl)amino]methyl}-4-trifluoromethoxyphenyl)-N-ethylamino]-3,3-dimethylpentanoic acid hydrochloride] |  | 53.8%
8 | 800 nM | CCN(CCCCC(=O)OC)c1cc2c(cc1CN(Cc1cc(C(F)(F)F)cc(C(F)(F)F)c1)c1ccn(C)n1)CCC2.Cl [Example 37, methyl 5-[N-(6-[{N′-[3,5-bis(trifluoromethyl)benzyl]-N′-(1-methyl-1H-pyrazol-3-yl)amino]methyl}indan-5-yl)-N-ethylamino]pentanoate hydrochloride] | 45.4% | 
9 | 160 nM | CCN(C[C@H]1CC[C@H](C(=O)O)CC1)c1ccc(OC(F)(F)F)cc1CN(Cc1cc(C(F)(F)F)cc(C(F)(F)F)c1)c1noc(C)n1.Cl [Example 109, trans-4-{[N-(2-{[N′-[3,5-bis(trifluoromethyl)benzyl]-N′-(5-methyl-[1,2,4]oxadiazol-3-yl)amino]methyl}-4-trifluoromethoxyphenyl)-N-ethylamino]methyl}cyclohexanecarboxylic acid hydrochloride] |  | 42.8%
10 | 510 nM | CCN(CCCCC(=O)O)c1cc2c(cc1CN(Cc1cc(C(F)(F)F)cc(C(F)(F)F)c1)c1ccn(C)n1)CCC2.Cl [Example 41, 5-[N-(6-{[N′-[3,5-bis(trifluoromethyl)benzyl]-N′-(1-methyl-1H-pyrazol-3-yl)amino]methyl}indan-5-yl)-N-ethylamino]pentanoic acid hydrochloride] | 36.0% | 
11 | 880 nM | CCN(CCCCC(=O)O)c1cc2c(cc1CN(Cc1cc(C#N)cc(C(F)(F)F)c1)c1nnn(C)n1)CCC2.Cl [Example 39, 5-[N-(6-{[N′-(3-cyano-5-trifluoromethylbenzyl)-N′-(2-methyl-2H-tetrazol-5-yl)amino]methyl}indan-5-yl)-N-ethylamino]pentanoic acid hydrochloride] | 49.6% | 
12 | 190 nM | CCN(CCC(C)(C)CC(=O)O)c1cc2c(cc1CN(Cc1cc(C(F)(F)F)cc(C(F)(F)F)c1)c1nnn(C)n1)CCC2.Cl [Example 92, 5-[N-(6-{[N′-[3,5-bis(trifluoromethyl)benzyl]-N′-(2-methyl-2H-tetrazol-5-yl)amino]methyl}indan-5-yl)-N-ethylamino]-3,3-dimethylpentanoic acid hydrochloride] |  | 46.9%
13 | 240 nM | CCN(CC1CCCC1)c1cc2c(cc1CN(Cc1cc(C(F)(F)F)cc(C(F)(F)F)c1)c1nnn(C)n1)CCC2 [Example 3, N-[3,5-bis(trifluoromethyl)benzyl]-N-[6-(N′-cyclopentylmethyl-N′-ethylamino)indan-5-ylmethyl]-(2-methyl-2H-tetrazol-5-yl)amine] |  | 
14 | 630 nM | CCN(CCCCC(=O)O)c1cc2c(cc1CN(Cc1cc(C(F)(F)F)cc(C(F)(F)F)c1)c1noc(C)n1)CCC2 [Example 8, 5-{N-(6-{[N′-[3,5-bis(trifluoromethyl)benzyl]-N′-(5-methyl-[1,2,4]oxadiazol-3-yl)amino]methyl}indan-5-yl)-N-ethylamino}pentanoic acid hydrochloride] |  | 
15 | 780 nM | CCN(C[C@H]1CC[C@H](C(=O)O)CC1)c1cc2c(cc1CN(Cc1cc(C#N)cc(C(F)(F)F)c1)c1ncn(C)n1)CCC2 [Example 60, trans-4-{[N-(6-{[N′-(3-cyano-5-trifluoromethylbenzyl)-N′-(1-methyl-1H-[1,2,4]triazol-3-yl)amino]methyl}indan-5-yl)-N-ethylamino]methyl}cyclohexanecarboxylic acid] |  | 
16 | 600 nM | CCN(CCC(C)(C)CC(=O)O)c1ccc(C(F)(F)F)cc1CN(Cc1cc(C(F)(F)F)cc(C(F)(F)F)c1)c1nnn(C)n1 [Example 105, 5-[N-(2-{[N′-[3,5-bis(trifluoromethyl)benzyl]-N′-(2-methyl-2H-tetrazol-5-yl)amino]methyl}-4-trifluoromethylphenyl)-N-ethylamino]-3,3-dimethylpentanoic acid hydrochloride] |  | 

Reference: patent publication US7807701B2, “Dibenzylamine compounds and pharmaceutical use thereof” (Japan Tobacco Inc., priority 2002, dated 2010)
